Source: patent publication US6914045B2, “Glycopeptide antibiotics” (Wyeth Holdings Corporation, priority 2001, dated 2005)
In brackets after ≈: the same amount, converted by molar mass.

Columns and labels:
Experiment in all cases: in vitro antibacterial evaluation, MIC by broth dilution
Type in all cases: cell-based
Streptococcus sp. = settings: broth dilution, 18 hours at 35° C.
How it was run: (§1)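 Inoculum 5×10^5 CFU/mL; concentrations 64 to 0.06 μg/mL; MIC defined as lowest inhibitory level. Conducted by broth dilution under NCCLS guidelines.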

Staphylococcus sp. = settings: broth dilution, 18 hours at 35° C.
How it was run: as §1

Escherichia coli = settings: 18 hours at 35° C.
How it was run: as §1

Enterococcus sp. = settings: broth dilution, 18 hours at 35° C.
How it was run: as §1

**Q.** How did the “MIC Streptococcus pneumoniae (ATCC 6301)” value (Streptococcus sp.; strain ATCC 6301) turn out when `CC(C)C(=O)OCC1OC(OC2C(CO)OC(Oc3ccc(CC4NC(=O)C(Cc5ccccc5)NC(=O)CNC(=O)C(CO)NC(=O)C(C(O)C5CNC(=N)N5C5OC(CO)C(O)C(O)C5O)NC(=O)C(C(O)C5CNC(=N)N5)NC4=O)cc3)C(O)C2O)C(O)C(O)C1O` (centres unmarked) [Example 283a, Cyclo[glycylphenylalanyl-O-[4-O-[6-O-(2-methylpropanoyl)-hexopyranosyl]hexopyranosyl]tyrosyl-3-(2-iminoimidazolidin-4-yl)seryl-3-(3-hexopyranosyl-2-iminoimidazolidin-4-yl)seryliseryl]] was run?
**A.** The value was 16 µg/mL (≈ 11.8 µM).

**Q.** What about the “MIC Streptococcus pneumoniae (GC 1894)” value (Streptococcus sp.; strain GC 1894) of the same compound?
**A.** The value was 16 µg/mL (≈ 11.8 µM).

**Q.** And the “MIC Streptococcus pyogenes (GC 4563)” value (Streptococcus sp.; strain GC 4563)?
**A.** Its value is 64 µg/mL (≈ 47.4 µM).

**Q.** What about the “MIC Streptococcus agalactiae (GC 4564)” value (Streptococcus sp.; strain GC 4564) of the same compound?
**A.** The value was 64 µg/mL (≈ 47.4 µM).

**Q.** And the “MIC Streptococcus pneumoniae (GC 4565)” value (Streptococcus sp.; strain GC 4565)?
**A.** The value was 16 µg/mL (≈ 11.8 µM).

**Q.** What about the “MIC Coagulase Negative Staphylococcus (GC 4547)” value (Staphylococcus sp.) of the same compound?
**A.** Its value is 64 µg/mL (≈ 47.4 µM).

**Q.** What about the “MIC Coagulase Negative Staphylococcus (GC 4548)” value (Staphylococcus sp.) of the same compound?
**A.** The value was 64 µg/mL (≈ 47.4 µM).

**Q.** What about the “MIC Coagulase Negative Staphylococcus (GC 4549)” value (Staphylococcus sp.) of the same compound?
**A.** Its value is 32 µg/mL (≈ 23.7 µM).

**Q.** And the “MIC Coagulase Negative Staphylococcus (GC 4551)” value (Staphylococcus sp.)?
**A.** The value was 64 µg/mL (≈ 47.4 µM).

**Q.** And the “MIC Staphylococcus aureus (ATCC 29213)” value (Staphylococcus sp.)?
**A.** The value was 64 µg/mL (≈ 47.4 µM).

**Q.** And the “MIC Staphylococcus aureus (GC 1131)” value (Staphylococcus sp.)?
**A.** Its value is 64 µg/mL (≈ 47.4 µM).

**Q.** What about the “MIC Staphylococcus aureus (GC 3051)” value (Staphylococcus sp.) of the same compound?
**A.** The value was 64 µg/mL (≈ 47.4 µM).

**Q.** And the “MIC Staphylococcus aureus (GC 3053)” value (Staphylococcus sp.)?
**A.** Its value is 128 µg/mL (≈ 94.7 µM).

**Q.** What about the “MIC Staphylococcus aureus (GC 4541)” value (Staphylococcus sp.) of the same compound?
**A.** Its value is 64 µg/mL (≈ 47.4 µM).

**Q.** What about the “MIC Staphylococcus aureus (GC 4542)” value (Staphylococcus sp.) of the same compound?
**A.** The value was 64 µg/mL (≈ 47.4 µM).

**Q.** And the “MIC Staphylococcus aureus (GC 4544)” value (Staphylococcus sp.)?
**A.** Its value is 64 µg/mL (≈ 47.4 µM).

**Q.** What about the “MIC Staphylococcus aureus (GC 4545)” value (Staphylococcus sp.) of the same compound?
**A.** Its value is 64 µg/mL (≈ 47.4 µM).

**Q.** What about the “MIC Staphylococcus aureus-SMITH (GC 4543)” value (Staphylococcus sp.) of the same compound?
**A.** Its value is 64 µg/mL (≈ 47.4 µM).

**Q.** And the “MIC Staphylococcus haemolyticus (GC 4546)” value (Staphylococcus sp.)?
**A.** The value was 64 µg/mL (≈ 47.4 µM).

**Q.** And the “MIC Staphylococcus aureus (ATCC 29213)” value (Staphylococcus sp.; strain ATCC 29213)?
**A.** The value was 64 µg/mL (≈ 47.4 µM).

**Q.** What about the “MIC Staphylococcus aureus (GC 1131)” value (Staphylococcus sp.; strain GC 1131) of the same compound?
**A.** Its value is 64 µg/mL (≈ 47.4 µM).

**Q.** What about the “MIC Staphylococcus aureus (GC 3051)” value (Staphylococcus sp.; strain GC 3051) of the same compound?
**A.** The value was 64 µg/mL (≈ 47.4 µM).

**Q.** And the “MIC Staphylococcus aureus (GC 3053)” value (Staphylococcus sp.; strain GC 3053)?
**A.** The value was 128 µg/mL (≈ 94.7 µM).

**Q.** And the “MIC Staphylococcus aureus (GC 4541)” value (Staphylococcus sp.; strain GC 4541)?
**A.** Its value is 64 µg/mL (≈ 47.4 µM).

**Q.** And the “MIC Staphylococcus aureus (GC 4542)” value (Staphylococcus sp.; strain GC 4542)?
**A.** The value was 64 µg/mL (≈ 47.4 µM).

**Q.** And the “MIC Staphylococcus aureus (GC 4544)” value (Staphylococcus sp.; strain GC 4544)?
**A.** The value was 64 µg/mL (≈ 47.4 µM).

**Q.** And the “MIC Staphylococcus aureus (GC 4545)” value (Staphylococcus sp.; strain GC 4545)?
**A.** Its value is 64 µg/mL (≈ 47.4 µM).

**Q.** And the “MIC Staphylococcus haemolyticus (GC 4546)” value (Staphylococcus sp.; strain GC 4546)?
**A.** Its value is 64 µg/mL (≈ 47.4 µM).

**Q.** And the “MIC Coagulase Negative Staphylococcus (GC 4547)” value (Staphylococcus sp.; strain GC 4547)?
**A.** Its value is 64 µg/mL (≈ 47.4 µM).

**Q.** And the “MIC Coagulase Negative Staphylococcus (GC 4548)” value (Staphylococcus sp.; strain GC 4548)?
**A.** Its value is 64 µg/mL (≈ 47.4 µM).

**Q.** What about the “MIC Coagulase Negative Staphylococcus (GC 4549)” value (Staphylococcus sp.; strain GC 4549) of the same compound?
**A.** Its value is 32 µg/mL (≈ 23.7 µM).

**Q.** What about the “MIC Coagulase Negative Staphylococcus (GC 4551)” value (Staphylococcus sp.; strain GC 4551) of the same compound?
**A.** The value was 64 µg/mL (≈ 47.4 µM).

**Q.** And the “MIC Staphylococcus aureus-SMITH (GC 4543)” value (Staphylococcus sp.; strain SMITH GC 4543)?
**A.** Its value is 64 µg/mL (≈ 47.4 µM).

**Q.** And the “MIC Escherichia coli (ATCC 25922)” value (Escherichia coli; Escherichia coli (ATCC 25922))?
**A.** Its value is 128 µg/mL (≈ 94.7 µM).

**Q.** And the “MIC Escherichia coli (GC 4559)” value (Escherichia coli; Escherichia coli (GC 4559))?
**A.** The value was over 128 µg/mL.

**Q.** And the “MIC Escherichia coli (GC 4560)” value (Escherichia coli; Escherichia coli (GC 4560))?
**A.** The value was 32 µg/mL (≈ 23.7 µM).

**Q.** What about the “MIC Enterococcus avium (GC 4558)” value (Enterococcus sp.; Enterococcus avium (GC 4558)) of the same compound?
**A.** The value was 128 µg/mL (≈ 94.7 µM).

**Q.** And the “MIC Enterococcus faecalis (ATCC 29212)” value (Enterococcus sp.; Enterococcus faecalis (ATCC 29212))?
**A.** The value was over 128 µg/mL.

**Q.** What about the “MIC Enterococcus faecalis (GC 4553)” value (Enterococcus sp.; Enterococcus faecalis (GC 4553)) of the same compound?
**A.** Its value is over 128 µg/mL.

**Q.** And the “MIC Enterococcus faecalis (GC 4554)” value (Enterococcus sp.; Enterococcus faecalis (GC 4554))?
**A.** The value was over 128 µg/mL.

**Q.** What about the “MIC Enterococcus faecalis (GC 6189)” value (Enterococcus sp.; Enterococcus faecalis (GC 6189)) of the same compound?
**A.** The value was over 128 µg/mL.

**Q.** And the “MIC Enterococcus faecium (GC 2243)” value (Enterococcus sp.; Enterococcus faecium (GC 2243))?
**A.** Its value is over 128 µg/mL.

**Q.** And the “MIC Enterococcus faecium (GC 4556)” value (Enterococcus sp.; Enterococcus faecium (GC 4556))?
**A.** The value was over 128 µg/mL.

**Q.** And the “MIC Enterococcus faecium (GC 4557)” value (Enterococcus sp.; Enterococcus faecium (GC 4557))?
**A.** Its value is 64 µg/mL (≈ 47.4 µM).

**Q.** What about the “MIC Enterococcus faecalis (ATCC 29212)” value (Enterococcus sp.; strain ATCC 29212) of the same compound?
**A.** Its value is over 128 µg/mL.

**Q.** What about the “MIC Enterococcus faecalis (GC 2242)” value (Enterococcus sp.; strain GC 2242) of the same compound?
**A.** Its value is 128 µg/mL (≈ 94.7 µM).

**Q.** And the “MIC Enterococcus faecium (GC 2243)” value (Enterococcus sp.; strain GC 2243)?
**A.** The value was over 128 µg/mL.

**Q.** What about the “MIC Enterococcus faecalis (GC 2691)” value (Enterococcus sp.; strain GC 2691) of the same compound?
**A.** Its value is over 128 µg/mL.

**Q.** What about the “MIC Enterococcus faecalis (GC 3059)” value (Enterococcus sp.; strain GC 3059) of the same compound?
**A.** The value was over 128 µg/mL.

**Q.** What about the “MIC Enterococcus faecalis (GC 4552)” value (Enterococcus sp.; strain GC 4552) of the same compound?
**A.** Its value is over 128 µg/mL.

**Q.** And the “MIC Enterococcus faecalis (GC 4553)” value (Enterococcus sp.; strain GC 4553)?
**A.** Its value is over 128 µg/mL.

**Q.** And the “MIC Enterococcus faecalis (GC 4554)” value (Enterococcus sp.; strain GC 4554)?
**A.** Its value is over 128 µg/mL.

**Q.** What about the “MIC Enterococcus faecium (GC 4556)” value (Enterococcus sp.; strain GC 4556) of the same compound?
**A.** Its value is over 128 µg/mL.

**Q.** And the “MIC Enterococcus faecium (GC 4557)” value (Enterococcus sp.; strain GC 4557)?
**A.** Its value is 64 µg/mL (≈ 47.4 µM).

**Q.** And the “MIC Enterococcus avium (GC 4558)” value (Enterococcus sp.; strain GC 4558)?
**A.** Its value is 128 µg/mL (≈ 94.7 µM).

**Q.** And the “MIC Enterococcus faecalis (GC 6189)” value (Enterococcus sp.; strain GC 6189)?
**A.** Its value is over 128 µg/mL.
